# Target: T1, human VEGF-R2 receptor (KDR) (Homo sapiens, UniProt P35968)
# T1 construct: expressed in transfected cells
# Experiment: Inhibition of VEGF-induced VEGF-R2 (KDR) autophosphorylation in transfected CHO cells, sandwich ELISA
# Format: cell-based
# Conditions: % inhibition at 10 μM
# Procedure: The inhibition of VEGF-induced receptor autophosphorylation can be confirmed with a further in vitro experiments in cells such as transfected CHO cells, which permanently express human VEGF-R2 receptor (KDR), are seeded in complete culture medium (with 10% fetal calf serum=FCS) in 6-well cell-culture plates and incubated at 37° C. under 5% CO2 until they show about 80% confluency. The compounds to be tested are then diluted in culture medium (without FCS, with 0.1% bovine serum albumin) and added to the cells. (Controls comprise medium without test compounds). After two hours of incubation at 37° C., recombinant VEGF is added; the final VEGF concentration is 20 ng/ml. After a further five minutes incubation at 37° C., the cells are washed twice with ice-cold PBS (phosphate-buffered saline) and immediately lysed in 100 μl lysis buffer per well. The lysates are then centrifuged to remove the cell nuclei, and the protein concentrations of the supernatants are determined using a commercial protein assay (BIORAD). The lysates can then either be immediately used or, if necessary, stored at −20° C.
# The plates are then washed and the remaining free protein-binding sites are saturated with 3% TopBlock® (Juro, Cat. # TB232010) in phosphate buffered saline with Tween 20® (polyoxyethylen(20)sorbitane monolaurate, ICI/Uniquema) (PBST). The cell lysates (20 μg protein per well) are then incubated in these plates overnight at 4° C. together with an antiphosphotyrosine antibody coupled with alkaline phosphatase (PY20:AP from Zymed). […] The luminescence is measured in a Packard Top Count Microplate Scintillation Counter. The difference between the signal of the positive control (stimulated with VEGF) and that of the negative control (not stimulated with VEGF) corresponds to VEGF-induced VEGF-R2 phosphorylation (=100%). The activity of the tested substances is calculated as percent inhibition of VEGF-induced VEGF-R2 phosphorylation, wherein the concentration of substance that induces half the maximum inhibition is defined as the IC50 (inhibitory dose for 50% inhibition). […]
# T1 sequence (P35968 20-1356): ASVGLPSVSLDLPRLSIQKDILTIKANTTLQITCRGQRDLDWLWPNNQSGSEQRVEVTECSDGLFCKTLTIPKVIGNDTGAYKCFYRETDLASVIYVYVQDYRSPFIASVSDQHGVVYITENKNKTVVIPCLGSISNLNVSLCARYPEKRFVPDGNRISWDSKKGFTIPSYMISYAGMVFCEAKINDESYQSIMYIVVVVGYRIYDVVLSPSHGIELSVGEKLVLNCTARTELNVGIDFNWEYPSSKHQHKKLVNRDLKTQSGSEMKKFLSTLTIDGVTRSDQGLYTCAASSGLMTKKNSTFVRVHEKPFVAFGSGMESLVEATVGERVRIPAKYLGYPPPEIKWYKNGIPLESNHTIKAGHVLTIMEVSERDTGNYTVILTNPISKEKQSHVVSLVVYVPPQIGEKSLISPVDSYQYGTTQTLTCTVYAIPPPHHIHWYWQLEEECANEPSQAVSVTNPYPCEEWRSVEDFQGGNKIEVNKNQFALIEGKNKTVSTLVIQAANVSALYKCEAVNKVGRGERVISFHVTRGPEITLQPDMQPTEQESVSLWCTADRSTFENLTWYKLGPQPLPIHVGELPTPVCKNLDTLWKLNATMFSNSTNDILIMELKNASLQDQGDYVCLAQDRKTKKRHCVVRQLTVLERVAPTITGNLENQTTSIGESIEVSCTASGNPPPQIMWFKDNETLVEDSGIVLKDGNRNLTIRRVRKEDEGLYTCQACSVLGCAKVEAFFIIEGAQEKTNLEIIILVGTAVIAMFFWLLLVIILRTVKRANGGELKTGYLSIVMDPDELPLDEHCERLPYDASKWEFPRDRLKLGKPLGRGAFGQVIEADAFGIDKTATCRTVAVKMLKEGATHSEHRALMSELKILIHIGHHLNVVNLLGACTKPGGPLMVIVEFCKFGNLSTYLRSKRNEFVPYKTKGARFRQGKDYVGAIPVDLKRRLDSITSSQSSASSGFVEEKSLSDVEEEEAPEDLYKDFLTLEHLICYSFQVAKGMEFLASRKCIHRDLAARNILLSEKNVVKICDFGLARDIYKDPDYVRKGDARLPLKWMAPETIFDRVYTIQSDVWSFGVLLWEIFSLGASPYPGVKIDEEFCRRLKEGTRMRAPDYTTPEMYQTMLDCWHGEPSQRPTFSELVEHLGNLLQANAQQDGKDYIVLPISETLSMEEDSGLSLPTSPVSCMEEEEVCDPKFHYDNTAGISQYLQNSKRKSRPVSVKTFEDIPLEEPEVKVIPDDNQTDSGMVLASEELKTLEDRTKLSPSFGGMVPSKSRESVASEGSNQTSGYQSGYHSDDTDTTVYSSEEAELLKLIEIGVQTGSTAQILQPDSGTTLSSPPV
row,Structure (SMILES),KDR trans (% at 10 μM) [%]
1,Cc1ccc(NC(=O)Nc2ccc(Oc3ccncc3)cc2)cc1 [Example 4],99
2,CCc1ccc(NC(=O)N(C)c2ccc(Oc3ccncc3)cc2)cc1 [Example 5],99
3,CN(C(=O)Nc1cccc(C(F)(F)F)c1)c1ccc(Oc2ccncc2)cc1 [Example 6],100
4,CCCc1ccc(NC(=O)N(C)c2ccc(Oc3ccncc3)cc2)cc1 [Example 7],97
5,Cc1ccc(NC(=O)N(C)c2ccc(Oc3ccncc3)cc2)cc1 [Example 8],78
6,O=C(Nc1ccc(Oc2ccncc2)cc1)Nc1ccc(Br)c(C(F)(F)F)c1 [Example 9],92
7,O=C(Nc1ccc(Oc2ccncc2)cc1)Nc1ccc(OCC(F)(F)F)c(C(F)(F)F)c1 [Example 10],100
8,COc1cc(NC(=O)Nc2ccc(Oc3ccncc3)cc2)cc(C(F)(F)F)c1 [Example 11],100
9,CCCc1ccc(NC(=O)Nc2ccc(Cc3ccncc3)cc2)cc1 [Example 12],97
10,CCc1ccc(NC(=O)Nc2ccc(Cc3ccncc3)cc2)cc1 [Example 13],98
11,Cc1ccc(NC(=O)Nc2ccc(Cc3ccncc3)cc2)cc1 [Example 14],97
12,O=C(Nc1ccc(Cc2ccncc2)cc1)Nc1cccc(C(F)(F)F)c1 [Example 15],99
13,"CCc1ccc(NC(=O)Cc2ccc(Oc3ccncc3)cc2)cc1 [Example 16, N-(4-pyridin-4-yl-oxy-phenyl)acetyl-(4-ethyl-phenyl)-amide]",99
14,Cc1ccc(NC(=O)Cc2ccc(Oc3ccncc3)cc2)cc1 [Example 17],96
15,CCCc1ccc(NC(=O)Cc2ccc(Oc3ccncc3)cc2)cc1 [Example 18],99
16,"O=C(Nc1cccc(C(F)(F)F)c1)N1CCc2cc(Oc3ccncc3)ccc21 [Example 19, 5(4-pyridyloxy)-N-(3-trifluoromethyl-phenyl)amino-carbonyl-2,3-dihydroindole]",86
17,O=C(Nc1cccc(C(F)(F)F)c1)N1CCCc2cc(Oc3ccncc3)ccc21 [Example 20],93
18,"O=C(Nc1ccc(Oc2cc(Cl)ncn2)cc1)Nc1cccc(C(F)(F)F)c1 [Example 21, N-(4-(6-Chloropyrimidin-4-yl)-oxyphenyl)-N′-(3-trifluoromethylphenyl)-urea]",100
19,Cc1cc(Oc2ccc(NC(=O)Nc3cccc(C(F)(F)F)c3)cc2)ccn1 [Example 30],98
20,O=C(Nc1ccc(Oc2cc(Nc3ccc(O)cc3)ncn2)cc1)Nc1ccc(OCC(F)(F)F)c(C(F)(F)F)c1 [Example 32],96

# System: not given
# Experiment: not given
# Conditions: not given
row,Structure (SMILES),melting point [°C]
1,"O=C(Nc1cccc(C(F)(F)F)c1)N1CCc2cc(Oc3ccncc3)ccc21 [Example 19, 5(4-pyridyloxy)-N-(3-trifluoromethyl-phenyl)amino-carbonyl-2,3-dihydroindole]",171 to 172.5
2,O=C(Nc1cccc(C(F)(F)F)c1)N1CCCc2cc(Oc3ccncc3)ccc21 [Example 20],185.5 to 188
3,"O=C(Nc1ccc(Oc2cc(Cl)ncn2)cc1)Nc1cccc(C(F)(F)F)c1 [Example 21, N-(4-(6-Chloropyrimidin-4-yl)-oxyphenyl)-N′-(3-trifluoromethylphenyl)-urea]",187.4 to 189.7
